# Experimental data as given in US8614179B2, “Antibacterial combination therapy for the treatment of gram positive bacterial infections” (E-Therapeutics PLC, priority 2008, dated 2013).
# Like-named read-outs stand apart in the source and are kept apart here.
# Key:
# [1] = system: MRSA; assay: microbe, parasite or virus in culture; assay type: cell-based; settings: Staphylococcus aureus
# Description: (§1) In example experiments miconazole nitrate, econazole nitrate and clotrimazole were dissolved in DMSO. Colistin, D-cycloserine, fosfomycin and polymixin B were dissolved in water. Nisin was suspended at 10 mg/mL in 0.02 M HCl, and the supernatant fraction following centrifugation at 10,000 g for 10 mins was used in the following experiments.
# (§2) Other solvents that may be used include caster oil, pyridine, and 0.9% saline. For IV administration agents may be solubilised in polyethoxylated caster oil, or cyclodextrins such as sulfobutylether7-βcyclodextrin or hydroxypropyl-β-cyclodextrin and lactic acid. Minimum inhibitory concentrations (MICs) of a range of clinical and control bacterial organisms were measured according to BSAC (British Society for Antimicrobial Chemotherapy) guidelines (Andrews 2001), for single agents. The method of determining MICs of imidazole with colistin, D-cycloserine, fosfomycin, polymixin B, or nisin is described briefly as follows. MICs were measured by agar dilution. Kill curves were performed in accordance with the methods of Garrison and Nuemiller, 2007. Briefly kill profiles were generated by logarithmically plotting mean CFU/mL data over time. Total logarithmic reductions in bacterial counts were determined by subtracting 24 h CFU/mL values from starting inocula.
# (§3) Stock solutions were prepared at concentrations of 1000 mg/L and 100 mg/L. To determine the MIC of miconazole, the appropriate amount of each stock solution were added to separate Petri dishes give a range of final concentrations (after the addition of 20 mL molten agar): from 0.12 to 32 mg/L. To determine the MICs of miconazole with the specific agent active on a bacterial cell surface, these concentrations of miconazole were used in addition to a fixed sub-inhibitory amount of the agent active on a bacterial cell surface. […] Volumes (20 mL) of cooled molten IST agar (oxoid) was added to each Petri dish and mixed by swirling. After drying, the plates were stored at 4° C. and protected from light. Plates were used on the day of preparation.
# (§4) The test organisms were grown overnight in 5 mL IST broth. Using a dilution in 0.9% saline of 1:100, the appropriate agar plates were inoculated using a multipoint inoculator.
# (§5) Agar plates and microtitre plates were incubated at 37° C. in air for 18-20 hours.
# (§6) The MIC is the minimum amount of an antibiotic at which there is no visible growth of bacteria. Tiny single colonies or faint hazes were not counted as growth. Synergy was reported if the inhibitory effect of the drugs in combination were greater than the sum of the inhibitory effects of each drug singly. The concentration of miconazole, with or without the cell membrane or cell wall active agent, capable of inhibiting the growth of 50% and 90% of the strains tested is reported as the MIC50 and MIC90 respectively. The range of MICs for each group of bacterial strains is also reported.
# [2] = system: Enterococcus faecium (VRE); assay: microbe, parasite or virus in culture; assay type: cell-based; settings: read-out: MIC
# Description: as §1, §2, §3, §4, §5, §6
smiles,measurement,setting,value
"Clc1ccc(COC(Cn2ccnc2)c2ccc(Cl)cc2Cl)c(Cl)c1 (stereo not shown) [Miconazole, 1-[2-(2,4-Dichlorophenyl)-2-[(2,4-dichlorophenyl)methoxy]ethyl]-1H-imidazole]",MIC,"[1]; Table 4, strain LF10, agents singly or miconazole MIC with 2.5 mg/L nisin",2 µg/mL
same,MIC,"[1]; Table 4, strain LF11, agents singly or miconazole MIC with 2.5 mg/L nisin",2 µg/mL
same,MIC,"[1]; Table 4, strain LF12, agents singly or miconazole MIC with 2.5 mg/L nisin",2 µg/mL
same,MIC,"[1]; Table 4, strain LF13, agents singly or miconazole MIC with 2.5 mg/L nisin",2 µg/mL
same,MIC,"[1]; Table 4, strain LF14, agents singly or miconazole MIC with 2.5 mg/L nisin",2 µg/mL
same,MIC,"[1]; Table 4, strain LF15, agents singly or miconazole MIC with 2.5 mg/L nisin",2 µg/mL
same,MIC,"[1]; Table 4, strain LF16, agents singly or miconazole MIC with 2.5 mg/L nisin",2 µg/mL
same,MIC,"[1]; Table 4, strain LF17, agents singly or miconazole MIC with 2.5 mg/L nisin",2 µg/mL
same,MIC,"[1]; Table 4, strain LF18, agents singly or miconazole MIC with 2.5 mg/L nisin",1 µg/mL
same,MIC,"[1]; Table 4, strain LF19, agents singly or miconazole MIC with 2.5 mg/L nisin",2 µg/mL
same,MIC,"[1]; Table 4, strain PF 15a 009521M ST22 EMRSA, agents singly or miconazole MIC with 2.5 mg/L nisin",1 µg/mL
same,MIC,"[1]; Table 4, strain PF 16a 00923R EMRSA 16, agents singly or miconazole MIC with 2.5 mg/L nisin",2 µg/mL
same,MIC,"[1]; Table 4, strain PF 99b 983237K BERIAN CLONE, agents singly or miconazole MIC with 2.5 mg/L nisin",2 µg/mL
same,MIC,"[1]; Table 4, strain PF 116a 981695K, agents singly or miconazole MIC with 2.5 mg/L nisin",2 µg/mL
same,MIC,"[1]; Table 4, strain PF 153a 026225E, agents singly or miconazole MIC with 2.5 mg/L nisin",0.5 µg/mL
same,MIC,"[1]; Table 4, strain S113 MRSA, agents singly or miconazole MIC with 2.5 mg/L nisin",2 µg/mL
same,MIC,"[2]; ATCC 7171 / VRE, Table 4, strain E. faecium ATCC 7171, agents singly or miconazole MIC with 2.5 mg/L nisin",0.5 µg/mL
same,MIC,"[2]; VRE, Table 4, strain E15 VanAATCC4147 E. faecium, agents singly or miconazole MIC with 2.5 mg/L nisin",2 µg/mL
same,MIC,"[2]; VRE, Table 4, strain E. faecium VanR B145344C LFE, agents singly or miconazole MIC with 2.5 mg/L nisin",4 µg/mL
